Read-outs that look alike come from different tables or passages of the source. A value given as a limit tells only on which side of the number the result lay.

Series [1] is classed as physicochemical. As for the experimental part:
Cottage cheese was prepared following the standard procedure for cottage cheese making. The dry curd was obtained by addition of a starter culture to pasteurized skim milk. After acidification till pH 4.4 the curd was pasteurized and rinsed with water. The dry curd was mixed with the dressing at the ratio 66% curd and […]. Before mixing the curd and the dressing, the preservatives Delvocid® and Delvoplus® were added to the dressing. The preservative concentrations in the end products were 2.5 and 5 ppm of natamycin (5 and 10 ppm of Delvocid®) and 1.25 and 2.5 ppm of nisin (50 and 100 ppm of Delvoplus®). The moisture content of cottage cheese (dry curd mixed with the dressing) was 82%.
The procedure described in the International IDF (International Dairy Federation) Standard 140A:1992 for cheese was used to determine the concentration of natamycin in the cottage cheese samples. In total 12 different samples were analysed in triplicate. The remaining percentage of natamycin was calculated using the average of the triplicate. […] After 6 weeks of storage at refrigerated temperature, the average stability of natamycin in cottage cheese was of 92%.

A further series concerns most food born fungi. The following applies: cited from earlier work.
A further series concerns yeast and mould. Nature of the series: Outgrowth of yeast and mould in or on food products. It is filed as cell-based.
In another series the test system is Listeria innocua LM35. Nature of the series: Antibacterial activity in inoculated cottage cheese, viable cell enumeration. It is filed as cell-based. To be noted: for Log CFU/g of L. innocua: nisin 0.00 ppm, cottage cheese, 4-7° C. As for the experimental part: This example describes the antibacterial activity of nisin (1.25 and 2.5 ppm) in cottage cheese, in presence of low natamycin concentration. Cottage cheese was prepared as described above. After adding the dressing to the dry curd, the cottage cheese was inoculated with yeasts, fungal cells and cells of Listeria innocua LM35. Following the artificial contamination, the cottage cheese was added with two nisin concentrations 1.25 and 2.5 ppm and/or in combination with natamycin at the concentration 2.5 or 5 ppm. The antibacterial activity of nisin against L. innocua was evaluated after 3 and 6 weeks of incubation at 4° C. through the enumeration of the viable cells in the inoculated samples, in presence or not of preservatives. The number of viable bacterial cells was also determined in a negative sample, non inoculated cottage cheese without preservatives and in a positive control, sample artificially contaminated with bacteria.

Series [2] has as its system Penicillium roqueforti CBS 304.97. Nature of the series: Antifungal activity in inoculated cottage cheese, viable cell enumeration. The class given is cell-based. To be noted: for Log spores/g of P. roqueforti: nisin 0.00 ppm, cottage cheese, 4-7° C. As for the experimental part:
(§1) This example describes the antifungal activity of low natamycin concentration (2.5 and 5 ppm) in cottage cheese, in presence of nisin. Cottage cheese was prepared as described above. After adding the dressing to the dry curd, the cottage cheese was inoculated with yeasts and fungal cells, Kluyveromyces marxianus CBS 1557 and Penicillium roqueforti CBS 304.97, respectively. Following the artificial contamination, natamycin and/or nisin was added to the cottage cheese at two different concentrations, 2.5 and 5 ppm for natamycin and 1.25 and 2.50 ppm for nisin. The antifungal activity of natamycin against the yeast and the mould cells was evaluated after 3 and 6 weeks of incubation at 4° C. through the enumeration of the viable cells in the inoculated samples, in presence or not of preservatives. The number of viable yeast of fungal cells was also determined in a negative sample, non inoculated cottage cheese without preservatives and in a positive control, sample artificially contaminated with yeast and fungal cells without preservative.

Series [3] has as its system Kluyveromyces marxianus CBS 1557. Described as above. The class given is cell-based. To be noted: for Log CFU/g of K. marxianus: nisin 0.00 ppm, cottage cheese, 4-7° C. As for the experimental part: as §1
Another series relates to Gram positive bacteria. Nature of the series: Outgrowth of Gram positive bacteria at the surface of food products. It is filed as cell-based. The following applies: applied at the surface of product, 0.0001 and 1 ppm nisin.
[4] abbreviates: natamycin at 2.5 or 5 ppm in cottage cheese, up to 6 weeks.

Regarding `C[C@@H]1C/C=C/C=C/C=C/C=C/[C@H](O[C@@H]2O[C@H](C)[C@@H](O)[C@H](N)[C@@H]2O)C[C@@H]2O[C@](O)(C[C@@H](O)C[C@H]3O[C@@H]3/C=C/C(=O)O1)C[C@H](O)[C@H]2C(=O)O` [natamycin], the “Stability of dissolved natamycin in water-containing product” value in series [1] is recorded as “stable”. Moreover, the “Stability of natamycin in cottage cheese” value in series [1] is on record as “stable”. For the same compound, the “Remaining percentage of natamycin” value in series [1] (0 h) was determined as 100%. Also, the “Remaining percentage of natamycin, Average” value in series [1] (0 h) was determined as 100%; in series [1] (504 h) it was 98%; in series [1] (1008 h) it was 92%. The “MIC (Minimal Inhibition Concentration)” value in the series on most food born fungi was “less than 10 ppm”. Besides, the “Effectiveness against yeast and mould” value in the series on yeast and mould (applied at the surface of product, 0.01 to 10 ppm natamycin) is reported as “extremely effective”; in the series on yeast and mould (introduced into foodstuffs at concentrations whereby almost no crystal or solid form is present, ranging from 120 ppm based on water content), “extremely effective”. For the same compound, the “Log CFU/g of L. innocua” value was 1.90 Log CFU/g with Listeria innocua LM35 (natamycin 2.50 ppm, 0 week); 2.50 Log CFU/g in the series with Listeria innocua LM35 (natamycin 2.50 ppm, 3 weeks); 4.50 Log CFU/g in the series on Listeria innocua LM35 (natamycin 2.50 ppm, 6 weeks); 1.90 Log CFU/g in the series on Listeria innocua LM35 (natamycin 5.00 ppm, 0 week); 1.90 Log CFU/g in the series with Listeria innocua LM35 (natamycin 5.00 ppm, 3 weeks); 4.70 Log CFU/g in the series with Listeria innocua LM35 (natamycin 5.00 ppm, 6 weeks). The “Log spores/g of P. roqueforti” value in series [2] (natamycin 2.50 ppm, 0 week) was 1.70 Log spores/g; in series [2] (natamycin 2.50 ppm, 3 weeks), 1.70 Log spores/g; in series [2] (natamycin 2.50 ppm, 6 weeks) it was less than 1.00 Log spores/g; in series [2] (natamycin 5.00 ppm, 0 week), 1.60 Log spores/g; in series [2] (natamycin 5.00 ppm, 3 weeks), less than 1.00 Log spores/g; in series [2] (natamycin 5.00 ppm, 6 weeks), less than 1.00 Log spores/g. Also, the “Prevention of growth of P. roqueforti” value in series [2] (setting [4]) is “effective in preventing the growth”. Besides, the “Log CFU/g of K. marxianus” value is reported as 1.70 Log CFU/g in series [3] (natamycin 2.50 ppm, 0 week); 1.70 Log CFU/g in series [3] (natamycin 2.50 ppm, 3 weeks); less than 1.00 Log CFU/g in series [3] (natamycin 2.50 ppm, 6 weeks); 1.30 Log CFU/g in series [3] (natamycin 5.00 ppm, 0 week); less than 1.00 Log CFU/g in series [3] (natamycin 5.00 ppm, 3 weeks); less than 1.00 Log CFU/g in series [3] (natamycin 5.00 ppm, 6 weeks). Besides, the “Prevention of growth of K. marxianus” value in series [3] (setting [4]) was “effective in preventing the growth”.
With nisin, the “Effectiveness against Gram positive bacteria” value in the series with Gram positive bacteria is “extremely effective”. Also, the “Inhibition of growth of L. innocua” value in the series on Listeria innocua LM35 (nisin 1.25 and 2.5 ppm in cottage cheese, in presence or not of natamycin) is “inhibited the growth”.

(Values after patent publication US8574645B2, “Antimicrobial composition” (DSM IP Assets B.V., priority 2004, dated 2013).)
